In US20100068816A1, “Genetically engineered herbicide resistance for maintaining axenic cultures” (TransAlgae Ltd, priority 2008, published 2010):

Legend:
[1] = system: zooplankton (e.g. Arthemia sp.); experiment: Zooplankton survivorship under CO2 and herbicide treatment; assay type: in vivo; details: microtubule-inhibiting herbicides
Method: (§1) To quantify CO2 effects on plankton survivorship we incubate 81 L vessels of the algae Pavlova lutheri, Isochrysis CS-177, Nannochloropsis oculata CS-179, Nannochloropsis like CS-246, Nannochloropsis salina CS-190, Tetraselmis suecica, Tetraselmis chuii and Nannochloris sp or cyanobacteria Synechococcus PCC7002, Synechococcus WH-7803, Thermosynechococcus elongatus BP-1 with or without zooplankton (e.g. Arthemia sp.). The control and zooplankton treated containers are bubbled with air, 1%, 5% and 14% CO2 together with specific herbicides that are applied at the appropriate concentrations. Algal cell density and zooplankton counts are done on each treatment over a 10 day period. Throughout the experiment pH is maintained at 7.0-8.0, which allows phytoplankton growth.

[2] = system: wild type algae and the cyanobacteria; experiment: Effect of microtubule-inhibiting herbicides on wild type algae and cyanobacteria
Method: as §1

[3] = system: ppo transformant algae; experiment: Dose response of ppo transformants versus wild type alga; assay type: cell-based; details: 0.1 μM, 0.3 μM, 0.5 μM in 24 well plates
Method: A dose response curve is generated for the wild type alga and for the transformants. The wild types and the transformant algae are plated in their medium in 24 well plates with increasing concentrations of 0.1 μM, 0.3 μM, 0.5 μM butafenacil or flumioxazin. Algae are plated without the herbicide as a control. […] The most resistant colonies are chosen for further analysis.

[4] = system: wild-type algae; experiment: Butafenacil dose response on wild type algae and cyanobacteria (FIG. 11); assay type: cell-based; details: 10^−6M or 10^−7M
Method: FIG. 11 A Chemical structure of butafenacil. B. Butafenacil dose response on wild type algae and cyanobacteria. Strains were cultured at OD648=0.1 in 24 well plate and butafencil was applied at concentrations of 10^−5,6,7M. After a week OD648 of the cultures was measured.
Cells are allowed to generate to visible colonies. After incubation for a week the most resistant colonies are chosen. To ascertain gene transformation PCR analysis is preformed on wild type and butafenacil or flumioxazin resistant colonies.

[5] = system: resistant pds transformed algae; experiment: Slow released herbicide embedded in photobioreactor lining: resistant transformed algae; assay type: cell-based; details: herbicide on inner side of photobioreactor, final concentration 10^−5 to 10^−7M if fully released
From the text: (§2) A hydrophobic herbicide/biocide such as flurochloridone or fluridone and/or butafenacil flumioxazin is/are applied using a volatile organic solvent such as xylene on the inner side of the polyethylene algae photobioreactor or pond liner, such that if it were fully released into the subsequent growth medium the concentration would reach a final concentration of 10^−5 to 10^−7M. Transgenically resistant algae or cyanobacteria versus wild-type are inoculated in the treated photobioreactors after the solvent has evaporated. In commercial production, the herbicides can be added during production of the polyethyelene.
(§3) Culture aliquots are removed daily and cell densities of wild types and the transformed algae or cyanobacteria are compared.

[6] = system: Synechococcus PCC7002 and Synechococcus WH7803; experiment: Mixed culture of ppo transformed algae and cyanobacteria contaminants, with and without herbicide; assay type: cell-based; details: mixed culture 10:1 transformant:cyanobacteria, one week liquid culture
Method: To address the question of contaminants, the transformed algae are mixed with cyanobacteria such as Synechococcus PCC7002 and Synechococcus WH7803, which are known to overtake ponds. The transformant and the cyanobacteria are cultured alone and in mixed cultures with and without butafenacil or flumioxazin. The mixed culture is plated in a ratio of 10:1 transformant: cyanobacteria respectively. The cells are allowed to grow for one week in liquid culture, with daily removal of aliquots. These aliquots are counted under the microscope and the ratio of contaminants vs. algae is calculated.

[7] = system: wild type culture; experiment: Slow released herbicide embedded in photobioreactor lining: wild type culture; assay type: cell-based; details: herbicide on inner side of photobioreactor, final concentration 10^−5 to 10^−7M if fully released
From the text: as §2, §3

[8] = system: Chlamydomonas pds transformants; experiment: Contamination test: Chlamydomonas pds transformant alone and in mixed culture, with and without flurochloridone; assay type: cell-based, Chlamydomonas reinhardtii; details: flurochloridone addition; liquid medium, one week, daily counts under the microscope; mixed culture 10:1
From the text: (§4) FIGS. 8A and B: Contamination test of Chlamydomonas pds transformant II5 versus the cyanobacterium Synechococcus PCC 7942. Chlamydomonas transformants and the cyanobacterium Synechococcus PCC7942 were inoculated alone and in mixed culture in a ratio of 10:1 with and without flurochloridone. Aliquots were removed daily and counted under the microscope. 8A represents the Chlamydomonas pds transformants counts and 8B represents the cyanobacterium Synechococcus PCC7942 counts.
(§5) To address the question of contaminants, the Chlamydomonas pds transformants were mixed with the cyanobacterium Synechococcus PCC7942, which is known to overtake ponds. A Chlamydomonas pds transformant and the cyanobacterium Synechococcus PCC7942 were inoculated alone and in mixed cultures with and without flurochloridone. The mixed culture was inoculated in a ratio of 10:1 Chlamydomonas pds transformants: Synechococcus PCC7942 wild type, respectively. The cells were allowed to grow for one week in liquid medium, with daily removal of aliquots. Contaminants versus target Chlamydomonas-cells were counted under the microscope (FIG. 8).

[9] = system: Synechococcus PCC7942; experiment: Contamination test: Synechococcus PCC7942 alone and in mixed culture, with and without flurochloridone; assay type: cell-based; details: flurochloridone addition; liquid medium, one week, daily counts under the microscope; mixed culture 10:1
From the text: as §4, §5

[10] = system: Nannochloropsis cells transformed with pSI103-PDS; experiment: Cross resistance of Nannochloropsis cells transformed with pSI103-PDS; assay type: cell-based, Nannochloropsis oculata; details: Nannochloropsis transformants selected on ASW + 1 μM flurochloridone
Method: FIG. 3. Nannochloropsis cells were transformed with the pSI103-PDS construct (right panel) as well as control cells which were not transformed with DNA (left panel) plated on artificial sea water (ASW)+1 μM flurochloridone.
Nannochloropsis oculata CS179 cells were transformed with the PSI103-PDS construct using the ECM 830 electroporator (BTX Instrument Division, Harvard Apparatus, Inc., Holliston, Mass., USA) as described above. After transformation algae were plated on ASW+F/2 media (http://www.marine.csiro.au/microalgae/methods/) containing 10^−7M flurochloridone. After two weeks, algal colonies both from the transformation and the mock were replated on ASW+10^−6M flurochloridone plates. This allowed differentiation between false positives and true resistant clones (FIG. 3). This material was used in Example 4.

[11] = system: Hydrilla verticillata; details: cited from earlier work

Molecule	effect on zooplankton [1]	effect on wild type algae and cyanobacteria [2]	further results
COP(=S)(NC(C)C)Oc1ccc(C)cc1[N+](=O)[O-] (stereo not shown) [amiprophos-methyl]	killed	do not harm	–
CCCCN(CC)c1c([N+](=O)[O-])cc(C(F)(F)F)cc1[N+](=O)[O-] [benefin]	killed	do not harm	–
C=CCOC(=O)C(C)(C)OC(=O)c1cc(-n2c(=O)cc(C(F)(F)F)n(C)c2=O)ccc1Cl [butafenacil]	–	–	growth of transformants bearing the resistance gene in dose response [3]: ability to grow at higher concentrations than the wild type; wild-type algae growth [4]: inhibit; growth of the resistant pds transformed algae [5]: unaffected; contaminants in mixed cultures containing the herbicide [6]: decreasing numbers of contaminants; growth of the wild type culture [7]: completely inhibited
CCOP(=S)(NC(C)CC)Oc1cc(C)ccc1[N+](=O)[O-] (stereo not shown) [butamiphos]	killed	do not harm	–
CCC(C)Nc1c([N+](=O)[O-])cc(C(C)(C)C)cc1[N+](=O)[O-] (stereo not shown) [butralin]	killed	do not harm	–
COC(=O)c1c(Cl)c(Cl)c(C(=O)OC)c(Cl)c1Cl [chlorthal-dimethyl]	killed	do not harm	–
CCN(CC)c1c([N+](=O)[O-])cc(C(F)(F)F)c(N)c1[N+](=O)[O-] [dinitramine]	killed	do not harm	–
CSC(=O)c1c(C(F)F)nc(C(F)(F)F)c(C(=O)SC)c1CC(C)C [dithiopyr]	killed	do not harm	–
C=C(C)CN(CC)c1c([N+](=O)[O-])cc(C(F)(F)F)cc1[N+](=O)[O-] [ethalfluralin]	killed	do not harm	–
C#CCN1C(=O)COc2cc(F)c(N3C(=O)C4=C(CCCC4)C3=O)cc21 [flumioxazin]	–	–	growth of transformants bearing the resistance gene in dose response [3]: ability to grow at higher concentrations than the wild type; wild-type algae growth [4]: inhibit; growth of the resistant pds transformed algae [5]: unaffected; contaminants in mixed cultures containing the herbicide [6]: decreasing numbers of contaminants; growth of the wild type culture [7]: completely inhibited
O=C1C(Cl)C(CCl)CN1c1cccc(C(F)(F)F)c1 (stereo not shown) [flurochloridone]	–	–	growth of the resistant pds Chlamydomonas cells [8]: unaffected; growth of the resistant pds transformed algae [5]: unaffected; growth of Synechococcus PCC7942 cells [9]: completely inhibited; growth of the wild type culture [7]: completely inhibited
CNc1cnn(-c2cccc(C(F)(F)F)c2)c(=O)c1Cl [norflurazon]	–	–	cross resistance of the flurochloridone resistant material [10]: cross resistant
CCC(CC)Nc1c([N+](=O)[O-])cc(C)c(C)c1[N+](=O)[O-] [pendimethalin]	killed	do not harm	–
O=C(Nc1ccc(F)cc1)c1cccc(Oc2cccc(C(F)(F)F)c2)n1 [picolinafen]	–	–	cross resistance of the flurochloridone resistant material [10]: cross resistant
C#CC(C)(C)NC(=O)c1cc(Cl)cc(Cl)c1 [propyzamide]	killed	do not harm	–
CC(C)N(Cc1ccccc1)C(=O)C(C)(C)C [tebutam]	killed	do not harm	–
COC(=O)c1c(C(F)F)nc(C(F)(F)F)c(C2=NCCS2)c1CC(C)C [thiazopyr]	killed	do not harm	–
CCCN(CCC)c1c([N+](=O)[O-])cc(C(F)(F)F)cc1[N+](=O)[O-] [trifluralin]	killed	do not harm	–
fluridone	–	–	cross resistance of the flurochloridone resistant material [10]: cross resistant; growth of the resistant pds transformed algae [5]: unaffected; biomass accumulation, of the content in untreated plants ([11]; fluridone resistant biotypes): up to 72%; β-carotene accumulation, of the content in untreated plants ([11]; fluridone resistant biotypes): ≤ 77%; biomass accumulation, of the levels found in untreated plants ([11]; susceptible population): 10%; β-carotene accumulation, of the levels found in untreated plants ([11]; susceptible population): 10%; growth of the wild type culture [7]: completely inhibited
